Source: US10221178B2, “Purine inhibitors of human phosphatidylinositol 3-kinase delta” (MERCK SHARP & DOHME CORP., priority 2015, dated 2019)

Legend:
[1] = biological target: PI3Kdelta (Homo sapiens (Human), UniProt O00329); test: HTRF PI3K biochemical assay, delta isoform; details: 0.3 nM enzyme, 100 uM ATP, 5 uM PIP2, form screened: Neutral
Outline: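 0.3 nM PI3Kδ, pre-incubated 15 min at RT with compound (10-point 3-fold series), then reacted 1 h at RT with 100 uM ATP and 5 uM PIP2. After EDTA stop, PIP3 product detected by HTRF competition (GST-GRP1-PH, biotin-PIP3, Eu anti-GST, SA-APC), read 665/620 nm after 1 h.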

[2] = biological target: PI3Kalpha (Homo sapiens (Human), UniProt P42336); test: HTRF PI3K biochemical assay, alpha isoform (selectivity versus PI3Kalpha); details: relative ratio (PI3K-alpha IC50 value/PI3K-delta IC50 value); form screened: Neutral
Sequence of PI3Kalpha (P42336 whole entry, the tested form may be a part, canonical isoform): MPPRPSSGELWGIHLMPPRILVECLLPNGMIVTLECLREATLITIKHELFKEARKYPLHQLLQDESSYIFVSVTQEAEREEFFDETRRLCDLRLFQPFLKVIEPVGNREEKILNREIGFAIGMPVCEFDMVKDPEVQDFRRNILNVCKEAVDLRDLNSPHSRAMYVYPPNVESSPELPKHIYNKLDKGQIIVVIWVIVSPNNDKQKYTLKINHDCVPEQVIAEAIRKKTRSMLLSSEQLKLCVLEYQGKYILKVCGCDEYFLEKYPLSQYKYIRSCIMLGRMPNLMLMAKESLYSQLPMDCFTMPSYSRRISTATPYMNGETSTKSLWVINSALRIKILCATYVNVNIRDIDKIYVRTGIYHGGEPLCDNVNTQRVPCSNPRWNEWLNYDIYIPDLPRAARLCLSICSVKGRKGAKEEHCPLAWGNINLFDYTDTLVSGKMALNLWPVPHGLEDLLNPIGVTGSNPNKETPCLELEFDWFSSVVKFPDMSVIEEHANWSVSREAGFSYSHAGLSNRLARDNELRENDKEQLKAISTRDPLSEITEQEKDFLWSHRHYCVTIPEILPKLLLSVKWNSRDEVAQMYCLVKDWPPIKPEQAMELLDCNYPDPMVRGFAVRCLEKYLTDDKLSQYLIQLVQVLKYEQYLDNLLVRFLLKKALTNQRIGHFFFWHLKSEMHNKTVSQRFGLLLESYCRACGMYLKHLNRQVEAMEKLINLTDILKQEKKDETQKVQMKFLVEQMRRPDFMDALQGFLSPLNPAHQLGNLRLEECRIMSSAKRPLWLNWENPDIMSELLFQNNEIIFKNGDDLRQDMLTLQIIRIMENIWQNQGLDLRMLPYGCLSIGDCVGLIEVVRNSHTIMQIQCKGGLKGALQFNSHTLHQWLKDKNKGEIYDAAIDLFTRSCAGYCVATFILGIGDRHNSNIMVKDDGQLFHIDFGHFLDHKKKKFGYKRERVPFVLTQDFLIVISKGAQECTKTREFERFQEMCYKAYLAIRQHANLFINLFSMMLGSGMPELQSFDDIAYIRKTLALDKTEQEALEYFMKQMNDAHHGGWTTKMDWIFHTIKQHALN
Sequence of PI3Kalpha (P27986 whole entry partner, the tested form may be a part, canonical isoform): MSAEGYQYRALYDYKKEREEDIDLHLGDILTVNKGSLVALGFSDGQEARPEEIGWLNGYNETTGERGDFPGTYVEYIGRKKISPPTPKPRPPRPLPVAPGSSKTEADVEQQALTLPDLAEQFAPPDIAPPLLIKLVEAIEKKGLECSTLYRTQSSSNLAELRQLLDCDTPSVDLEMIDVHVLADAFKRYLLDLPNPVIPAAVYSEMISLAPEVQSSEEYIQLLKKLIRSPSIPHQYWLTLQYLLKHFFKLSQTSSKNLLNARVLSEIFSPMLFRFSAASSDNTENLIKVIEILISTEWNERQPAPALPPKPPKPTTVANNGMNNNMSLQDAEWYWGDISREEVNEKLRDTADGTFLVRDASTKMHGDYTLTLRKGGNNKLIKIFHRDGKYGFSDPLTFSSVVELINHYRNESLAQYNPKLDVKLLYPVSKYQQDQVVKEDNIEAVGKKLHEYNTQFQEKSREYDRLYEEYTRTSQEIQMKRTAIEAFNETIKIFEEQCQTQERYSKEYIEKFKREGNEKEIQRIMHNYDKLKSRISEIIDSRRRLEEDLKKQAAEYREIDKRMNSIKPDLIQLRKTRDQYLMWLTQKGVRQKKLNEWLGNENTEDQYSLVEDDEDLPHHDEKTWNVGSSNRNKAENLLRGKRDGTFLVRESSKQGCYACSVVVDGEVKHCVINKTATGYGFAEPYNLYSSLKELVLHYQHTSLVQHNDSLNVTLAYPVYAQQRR
Outline: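 Uses recombinant PI3Kalpha at 0.5 nM with 100 uM ATP and 5 uM PIP2, after a 15 min RT compound pre-incubation and a 1 h RT reaction. PIP3 product displaces biotin-PIP3 from GST-GRP1 PH domain, read as HTRF 665/620 ratio. IC50 from a 10-point dose response, corrected via a PIP3 standard curve.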

Sequence of PI3Kdelta (O00329 whole entry, canonical isoform): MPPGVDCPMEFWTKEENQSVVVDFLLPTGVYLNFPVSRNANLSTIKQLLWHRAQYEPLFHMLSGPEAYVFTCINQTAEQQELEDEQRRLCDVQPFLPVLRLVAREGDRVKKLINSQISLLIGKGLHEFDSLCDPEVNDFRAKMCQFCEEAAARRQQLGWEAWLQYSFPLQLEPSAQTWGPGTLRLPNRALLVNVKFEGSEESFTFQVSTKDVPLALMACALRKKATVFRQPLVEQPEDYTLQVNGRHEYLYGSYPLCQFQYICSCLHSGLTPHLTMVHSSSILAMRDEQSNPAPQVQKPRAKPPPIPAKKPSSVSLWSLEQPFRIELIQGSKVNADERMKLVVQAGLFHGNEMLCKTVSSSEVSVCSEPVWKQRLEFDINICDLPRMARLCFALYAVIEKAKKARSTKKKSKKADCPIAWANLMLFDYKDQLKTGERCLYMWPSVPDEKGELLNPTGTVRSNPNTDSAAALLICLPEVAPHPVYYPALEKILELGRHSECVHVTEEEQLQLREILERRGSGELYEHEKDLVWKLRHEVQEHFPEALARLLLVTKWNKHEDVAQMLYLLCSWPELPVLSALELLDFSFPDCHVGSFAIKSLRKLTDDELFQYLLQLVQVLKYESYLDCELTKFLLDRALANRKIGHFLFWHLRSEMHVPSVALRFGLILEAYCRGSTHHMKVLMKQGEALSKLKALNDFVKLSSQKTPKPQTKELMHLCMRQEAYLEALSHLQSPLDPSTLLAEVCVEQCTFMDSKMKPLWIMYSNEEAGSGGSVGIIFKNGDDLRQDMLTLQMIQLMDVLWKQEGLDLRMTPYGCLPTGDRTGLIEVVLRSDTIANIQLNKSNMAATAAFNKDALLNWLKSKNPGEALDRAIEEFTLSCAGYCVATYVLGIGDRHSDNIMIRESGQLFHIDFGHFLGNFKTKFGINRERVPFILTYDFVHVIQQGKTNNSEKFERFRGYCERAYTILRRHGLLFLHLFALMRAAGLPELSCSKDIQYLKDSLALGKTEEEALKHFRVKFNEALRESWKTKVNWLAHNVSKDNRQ
Sequence of PI3Kdelta (P27986 whole entry partner, canonical isoform): as the sequence (P27986 whole entry partner, the tested form may be a part, canonical isoform) above

IC50 [1] [nM] | Selectivity versus PI3Kalpha [2] | Structure (SMILES)
5.5 | >10 | CC[C@H](Nc1ncnc2c1nc(-c1cnc(C)nc1)n2CC)C(=O)N1C[C@@H](C)N(C)[C@@H](C)C1 [Compound 4-3, 9-ethyl-8-(2-methylpyrimidin-5-yl)-N-[(1S)-1-{[cis-3,4,5-trimethylpiperazin-1-yl]carbonyl}propyl]-9H-purin-6-amine]
4.8 | >10 | CC[C@H](Nc1ncnc2c1nc(-c1cnc(C)nc1)n2CC)C(=O)N1C[C@@H](C)C(F)(F)[C@@H](C)C1 [Compound 4-4, N-[(1S)-1-{[cis-4,4-difluoro-3,5-dimethylpiperidin-1-yl]carbonyl}propyl]-9-ethyl-8-(2-methylpyrimidin-5-yl)-9H-purin-6-amine]
19 | >10 | CC[C@H](Nc1ncnc2c1nc(-c1cnc(C)nc1)n2CC)C(=O)N1CC(=O)NC(C)(C)C1 [Compound 4-7, 4-[(2S)-2-{[9-ethyl-8-(2-methylpyrimidin-5-yl)-9H-purin-6-yl]amino}butanoyl]-6,6-dimethylpiperazin-2-one]
